Experimental findings from patent US8927583B2, “Pesticidal composition comprising a 2-pyrdilmethylbenzamide derivative and an insecticide compound” (Bayer Cropscience AG, priority 2006, dated 2015) are described below.

Common to all, as to format: in vivo
The test system of one assay is Spodoptera frugiperda. Put plainly: Spodoptera frugiperda test (cabbage leaf dip, larvae mortality). Conditions: cabbage leaves; for Efficacy in % after 6 d: mortality after 6 d; for Efficacy in % after 4 d: mortality after 4 d. Here is the method:
(§1) To produce a suitable preparation of active compound, 1 part by weight of active compound is mixed with the stated amount of solvent and emulsifier, and the concentrate is diluted with emulsifier-containing water to the desired concentration.
Cabbage leaves (Brassica oleracea) are treated by being dipped into the preparation of the active compound of the desired concentration and are infested with larvae of the fall army worm (Spodoptera frugiperda) as long as the leaves are still moist.
(§2) After the specified period of time, the mortality in % is determined. 100% means that all the caterpillars have been killed; 0% means that none of the caterpillars have been killed.

A further assay has as its system Spodoptera exigua. Put plainly: Spodoptera exigua test (cabbage leaf dip, larvae mortality). Conditions: 500 ppm, mortality after 3 d, cabbage leaves. Here is the method:
as §1
Cabbage leaves (Brassica oleracea) are treated by being dipped into the preparation of the active compound of the desired concentration and are infested with larvae of the beet army worm (Spodoptera exigua) as long as the leaves are still moist.
as §2

Another assay relates to Plutella xylostella. Put plainly: Plutella xylostella test (cabbage leaf dip, larvae mortality). The following applies: mortality after 3 d, cabbage leaves. Here is the method: To produce a suitable preparation of active compound, 1 part by weight of active compound is mixed with the stated amount of solvent and emulsifier, and the concentrate is diluted with emulsifier-containing water to the desired concentration. Cabbage leaves (Brassica oleracea) are treated by being dipped into the preparation of the active compound of the desired concentration and are infested with larvae of the diamond back moth (Plutella xylostella) as long as the leaves are still moist. After the specified period of time, the mortality in % is determined. 100% means that all the caterpillars have been killed; 0% means that none of the caterpillars have been killed.

On to `O=C(NCc1ncc(C(F)(F)F)cc1Cl)c1c(Cl)cccc1Cl` [Fluopicolide, 2,6-dichloro-N-{[3-chloro-5-(trifluoromethyl)-2-pyridinyl]methyl}-benzamide], for which the “Efficacy in % after 6 d” value in the assay on Spodoptera frugiperda (200 ppm) was determined as 0%. Moreover, the “Efficacy in % after 4 d” value in the assay with Spodoptera frugiperda (500 ppm) turned out to be 0%. Further, the “Efficacy in % after 3 d” value in the assay with Spodoptera exigua and with Plutella xylostella (200 ppm) was 0% each time.
For the compound `O=[N+]([O-])NC1=NCCN1Cc1ccc(Cl)nc1` [Imidacloprid], in the assay on Spodoptera exigua, the “Efficacy in % after 3 d” value is listed as 40%.
On to `N#C/N=C1\SCCN1Cc1ccc(Cl)nc1` [Thiacloprid], for which the “Efficacy in % after 4 d” value with Spodoptera frugiperda (20 ppm) was found to be 25%.
`CN/C(=N\[N+](=O)[O-])NCc1cnc(Cl)s1` [Clothianidin]: the “Efficacy in % after 3 d” value in the assay with Plutella xylostella (4 ppm) is reported as 0%.
Turning to `CN1COCN(Cc2cnc(Cl)s2)/C1=N\[N+](=O)[O-]` [Thiamethoxam], the “Efficacy in % after 6 d” value in the assay with Spodoptera frugiperda (100 ppm) was found to be 0%.
